Common to all, as to type: in vivo
The test system of one test is Alternaria solani. The test can be described thus: Alternaria test (tomatoes)/preventive. The note with it: preventive, evaluated 3 days after inoculation. From the text: Alternaria Test (Tomatoes)/Preventive
The test system of a further test is Sphaerotheca fuliginea. The test can be described thus: Sphaerotheca test (cucumbers)/preventive. The note with it: preventive, evaluated 7 days after inoculation. From the text:
Sphaerotheca Test (Cucumbers)/Preventive

A further test relates to Phytophthora infestans. The note with it: tomatoes, preventive, evaluated 3 days after inoculation.
The test system of a further test is Venturia inaequalis. Put plainly: Venturia test (apples)/preventive. The note with it: 100 ppm a.i., preventive, evaluated 10 days after inoculation. From the text: Venturia Test (Apples)/Preventive
Another test concerns Botrytis cinerea. Put plainly: Botrytis test (beans)/preventive. The note with it: 10 ppm a.i., preventive, lesion size 2 days after inoculation. An excerpt: Botrytis Test (Beans)/Preventive

Counter-ions that a name gives are not always drawn. Like-named read-outs stand apart in the source and are kept apart here.

In the case of “metalaxyl-M (mefenoxam) [F242 mefenoxam]”, the “Efficacy in % found” value in the test with Alternaria solani (Table D2, 100 ppm a.i.) amounted to 0%.

As to `CCCOC(=O)NCCCN(C)C` [F220 propamocarb-HCl, propamocarb hydrochloride], the “Efficacy in % found” value is 30% in the test on Alternaria solani (Table D1, 200 ppm a.i.); 0% in the test with Sphaerotheca fuliginea (400 ppm a.i.); 3% in the test with Phytophthora infestans (400 ppm a.i.).

Regarding `COCC(=O)N(c1c(C)cccc1C)C(C)C(=O)OC` (stereo not drawn) [F241 metalaxyl, metalaxyl], the “Efficacy in % found” value in the test on Alternaria solani (Table D2, 100 ppm a.i.) is 8%.

`N#Cc1c[nH]cc1-c1cccc2c1OC(F)(F)O2` [F248 fludioxonil, fludioxonil]: the “Efficacy in % found” value in the test with Venturia inaequalis is recorded as 0%; in the test on Sphaerotheca fuliginea (100 ppm a.i.) it was 83%; in the test on Phytophthora infestans (100 ppm a.i.), 12%; in the test on Botrytis cinerea, 87%.

The values above are taken from patent US9968097B2 (priority 2012, dated 2018).
